tested on: mutant HCV PR: simeprevir: PRSIM_23 complex; assay: HTRF disruption of pre-formed mutant complexes; assay type: binding, Hepatitis C virus subtype 1a; details: mutation at position 136
Description: Methods of determining whether the competing small molecule is capable of binding to the target protein in the T-SM complex and displacing the small molecule from the T-SM complex include assays where a pre-formed tripartiate complex is generated and the ability of the binding member to bind the T-SM complex is measured (e.g. by a homogeneous time-resolved florescence (HTFR) binding assay) as increasing concentrations of the competing small molecule are added. A competing small molecule may be capable to displaying the small molecule from the T-SM complex if it is capable of inhibiting binding of inhibiting the binding member from binding the T-SM complex by at least 50%, by at least 75%, by at least 80%, by at least 85%, by at least 90%, or by at least 95% when measured using the HTFR binding assay. In some embodiments, the competing small molecule is asunaprevir, paritaprevir, vaniprevir, grazoprevir, danoprevir or glecaprevir. The binding member, target protein and small molecule using in the method may be as further defined herein in relation to other aspects of the disclosure.
To further characterise the mutations made to the HCV NS3/4A PR, we investigated whether the small molecules were able to disrupt pre-formed mutant HCV PR: simeprevir: PRSIM_23 complexes. […] The degree of inhibition is dependent on the specific mutation made.

| SMILES | inhibition of pre-formed mutant complex |
| --- | --- |
| CC(C)(C)OC(=O)N[C@H]1CCCCC/C=C\[C@@H]2C[C@@]2(C(=O)NS(=O)(=O)C2CC2)NC(=O)[C@@H]2C[C@@H](OC(=O)N3Cc4cccc(F)c4C3)CN2C1=O [danoprevir] | more pronounced inhibition |
| C=C[C@@H]1C[C@]1(NC(=O)[C@@H]1C[C@@H]2CN1C(=O)[C@H](C(C)(C)C)NC(=O)O[C@@H]1C[C@H]1CCCCCc1nc3ccc(OC)cc3nc1O2)C(=O)NS(=O)(=O)C1CC1.O [grazoprevir] | more pronounced inhibition |
| CC(C)(C)[C@@H]1NC(=O)O[C@@H]2CCC[C@H]2OC/C=C/C(F)(F)c2nc3ccccc3nc2O[C@@H]2C[C@@H](C(=O)N[C@]3(C(=O)NS(=O)(=O)C4(C)CC4)C[C@H]3C(F)F)N(C2)C1=O [glecaprevir] | more pronounced inhibition |
| CC[C@@H]1C[C@]1(NC(=O)[C@@H]1C[C@@H]2CN1C(=O)[C@H](C(C)(C)C)NC(=O)OCC(C)(C)CCCCc1cccc3c1CN(C3)C(=O)O2)C(=O)NS(=O)(=O)C1CC1 [vaniprevir] | more pronounced inhibition |
| Cc1cnc(C(=O)N[C@H]2CCCCC/C=C\[C@@H]3C[C@@]3(C(=O)NS(=O)(=O)C3CC3)NC(=O)[C@@H]3C[C@@H](Oc4nc5ccccc5c5ccccc45)CN3C2=O)cn1 [paritaprevir] | more pronounced inhibition |
| C=C[C@@H]1C[C@]1(NC(=O)[C@@H]1C[C@@H](Oc2ncc(OC)c3ccc(Cl)cc23)CN1C(=O)[C@@H](NC(=O)OC(C)(C)C)C(C)(C)C)C(=O)NS(=O)(=O)C1CC1 [asunaprevir] | more pronounced inhibition |

Source: patent US20220380801A1, “TRIPARTITE SYSTEMS FOR PROTEIN DIMERIZATION AND METHODS OF USE” (priority 2019, published 2022)
